Source: the supplement of paper PMC10307832

Assays:
Experiment in all cases: relative viability (nuclei count vs DMSO), 5 days (fraction); higher = more cells survive
NCI-H1734 = system: NCI-H1734
Summary of the method: (§1)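 Each reported value is a median over duplicate plates. It expresses relative viability: treated-well nuclei count divided by vehicle-well nuclei count. Lung cancer cell lines in 1536-well plates were dosed by pin tool a day after seeding, alone with one drug or with a fixed anchor-drug dose plus five library-drug doses (not always all listed) in √10 steps, and nuclei were counted after 5 days.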

HARA = system: HARA
Summary of the method: as §1

NCI-H1993 = system: NCI-H1993
Summary of the method: as §1

NCI-H647 = system: NCI-H647
Summary of the method: as §1

UMC-11 = system: UMC-11
Summary of the method: as §1

NCI-H2228 = system: NCI-H2228
Summary of the method: as §1

COR-L 105 = system: COR-L 105
Summary of the method: as §1

NCI-H2347 = system: NCI-H2347
Summary of the method: as §1

HCC-15 = system: HCC-15
Summary of the method: as §1

NCI-H1355 = system: NCI-H1355
Summary of the method: as §1

NCI-H1792 = system: NCI-H1792
Summary of the method: as §1

NCI-H838 = system: NCI-H838
Summary of the method: as §1

SK-MES-1 = system: SK-MES-1
Summary of the method: as §1

NCI-H358 = system: NCI-H358
Summary of the method: as §1

NCI-H1755 = system: NCI-H1755
Summary of the method: as §1

NCI-H2009 = system: NCI-H2009
Summary of the method: as §1

HOP-62 = system: HOP-62
Summary of the method: as §1

NCI-H2170 = system: NCI-H2170
Summary of the method: as §1

COR-L23 = system: COR-L23
Summary of the method: as §1

CC(=O)O[C@@]12CO[C@@H]1C[C@H](O)[C@@]1(C)C(=O)[C@H](O)C3=C(C)[C@@H](OC(=O)[C@H](O)[C@@H](NC(=O)OC(C)(C)C)c4ccccc4)C[C@@](O)([C@@H](OC(=O)c4ccccc4)[C@H]21)C3(C)C [Docetaxel] + C[C@@H](Oc1cc(-c2cnn(C3CCNCC3)c2)cnc1N)c1c(Cl)ccc(F)c1Cl [Crizotinib] (partner 1 µM)
relative viability (NCI-H1734; first compound 0.0002 µM): 0.498 | relative viability (NCI-H1734; first compound 0.000632 µM): 0.576 | relative viability (NCI-H1734; first compound 0.002 µM): 0.362 | relative viability (NCI-H1734; first compound 0.006325 µM): 0.298 | relative viability (NCI-H1734; first compound 0.02 µM): 0.246 | relative viability (HARA; first compound 0.0002 µM): 0.903 | relative viability (HARA; first compound 0.000632 µM): 0.364 | relative viability (HARA; first compound 0.002 µM): 0.312 | relative viability (HARA; first compound 0.006325 µM): 0.0907 | relative viability (HARA; first compound 0.02 µM): 0.104 | relative viability (NCI-H1993; first compound 0.0002 µM): 0.93 | relative viability (NCI-H1993; first compound 0.000632 µM): 0.787 | relative viability (NCI-H1993; first compound 0.002 µM): 0.791 | relative viability (NCI-H1993; first compound 0.006325 µM): 0.537 | relative viability (NCI-H1993; first compound 0.02 µM): 0.508 | relative viability (NCI-H647; first compound 0.0002 µM): 0.769 | relative viability (NCI-H647; first compound 0.000632 µM): 0.319 | relative viability (NCI-H647; first compound 0.002 µM): 0.172 | relative viability (NCI-H647; first compound 0.006325 µM): 0.117 | relative viability (NCI-H647; first compound 0.02 µM): 0.1 | relative viability (UMC-11; first compound 0.0002 µM): 0.612 | relative viability (UMC-11; first compound 0.000632 µM): 0.485 | relative viability (UMC-11; first compound 0.002 µM): 0.122 | relative viability (UMC-11; first compound 0.006325 µM): 0.108 | relative viability (UMC-11; first compound 0.02 µM): 0.084 | relative viability (NCI-H2228; first compound 0.0002 µM): 0.358 | relative viability (NCI-H2228; first compound 0.000632 µM): 0.292 | relative viability (NCI-H2228; first compound 0.002 µM): 0.22 | relative viability (NCI-H2228; first compound 0.006325 µM): 0.278 | relative viability (NCI-H2228; first compound 0.02 µM): 0.159 | relative viability (COR-L 105; first compound 0.0002 µM): 0.768 | relative viability (COR-L 105; first compound 0.000632 µM): 0.588 | relative viability (COR-L 105; first compound 0.002 µM): 0.361 | relative viability (COR-L 105; first compound 0.006325 µM): 0.285 | relative viability (COR-L 105; first compound 0.02 µM): 0.248 | relative viability (NCI-H2347; first compound 0.0002 µM): 0.736 | relative viability (NCI-H2347; first compound 0.000632 µM): 0.702 | relative viability (NCI-H2347; first compound 0.002 µM): 0.695 | relative viability (NCI-H2347; first compound 0.006325 µM): 0.589 | relative viability (NCI-H2347; first compound 0.02 µM): 0.422 | relative viability (HCC-15; first compound 0.0002 µM): 0.818 | relative viability (HCC-15; first compound 0.000632 µM): 0.452 | relative viability (HCC-15; first compound 0.002 µM): 0.172 | relative viability (HCC-15; first compound 0.006325 µM): 0.207 | relative viability (HCC-15; first compound 0.02 µM): 0.14 | relative viability (NCI-H1355; first compound 0.0002 µM): 1.01 | relative viability (NCI-H1355; first compound 0.000632 µM): 0.893 | relative viability (NCI-H1355; first compound 0.002 µM): 0.456 | relative viability (NCI-H1355; first compound 0.006325 µM): 0.241 | relative viability (NCI-H1355; first compound 0.02 µM): 0.198 | relative viability (NCI-H1792; first compound 0.0002 µM): 0.929 | relative viability (NCI-H1792; first compound 0.000632 µM): 0.905 | relative viability (NCI-H1792; first compound 0.002 µM): 0.646 | relative viability (NCI-H1792; first compound 0.02 µM): 0.115 | relative viability (NCI-H838; first compound 0.0002 µM): 0.856 | relative viability (NCI-H838; first compound 0.000632 µM): 0.7 | relative viability (NCI-H838; first compound 0.002 µM): 0.155 | relative viability (NCI-H838; first compound 0.006325 µM): 0.201 | relative viability (NCI-H838; first compound 0.02 µM): 0.124 | relative viability (SK-MES-1; first compound 0.0002 µM): 0.937 | relative viability (SK-MES-1; first compound 0.000632 µM): 0.845 | relative viability (SK-MES-1; first compound 0.002 µM): 0.287 | relative viability (SK-MES-1; first compound 0.006325 µM): 0.221 | relative viability (SK-MES-1; first compound 0.02 µM): 0.177 | relative viability (NCI-H358; first compound 0.0002 µM): 0.383 | relative viability (NCI-H358; first compound 0.000632 µM): 0.342 | relative viability (NCI-H358; first compound 0.002 µM): 0.16 | relative viability (NCI-H358; first compound 0.02 µM): 0.116 | relative viability (NCI-H1755; first compound 0.0002 µM): 0.833 | relative viability (NCI-H1755; first compound 0.000632 µM): 0.535 | relative viability (NCI-H1755; first compound 0.002 µM): 0.503 | relative viability (NCI-H1755; first compound 0.006325 µM): 0.382 | relative viability (NCI-H1755; first compound 0.02 µM): 0.353 | relative viability (NCI-H2009; first compound 0.0002 µM): 0.95 | relative viability (NCI-H2009; first compound 0.000632 µM): 1.03 | relative viability (NCI-H2009; first compound 0.002 µM): 0.426 | relative viability (NCI-H2009; first compound 0.006325 µM): 0.252 | relative viability (NCI-H2009; first compound 0.02 µM): 0.174 | relative viability (HOP-62; first compound 0.0002 µM): 0.903 | relative viability (HOP-62; first compound 0.000632 µM): 0.386 | relative viability (HOP-62; first compound 0.02 µM): 0.129 | relative viability (NCI-H2170; first compound 0.0002 µM): 1.04 | relative viability (NCI-H2170; first compound 0.000632 µM): 0.999 | relative viability (NCI-H2170; first compound 0.002 µM): 0.671 | relative viability (NCI-H2170; first compound 0.006325 µM): 0.304 | relative viability (NCI-H2170; first compound 0.02 µM): 0.199 | relative viability (COR-L23; first compound 0.0002 µM): 0.536 | relative viability (COR-L23; first compound 0.000632 µM): 0.483 | relative viability (COR-L23; first compound 0.002 µM): 0.111 | relative viability (COR-L23; first compound 0.006325 µM): 0.132 | relative viability (COR-L23; first compound 0.02 µM): 0.0806
